Results reported in patent publication EP4596561A1, “PHOSPHORUS-CONTAINING COMPOUND, PHARMACEUTICAL COMPOSITION AND USE THEREOF” (Suzhou Genhouse Bio Co., Ltd., priority 2022, dated 2024).
pIC50: −log10 of the molar value. Where two headings read alike, the source gives them in different places.

Columns and labels:
[1] = Pharmacokinetic test in mice (low dose); assay type: in vivo, Balb/c mice; details: mouse, in vivo
Method: The compounds of the present disclosure were administered to Balb/c mice by single intravenous injection and oral gavage, and the plasma of the mice at each time point was collected. The concentration of the compounds to be tested in BALB/C plasma was detected using the LC-MS/MS analysis method, and pharmacokinetic analysis was performed.
The mixture was vortexed, shaken, and ultrasonicated. The remaining volume of 25% sulfobutylether-β-cyclodextrin (sterilized) was added to prepare the final concentration solution or suspension.
Intravenous injection formulations will be directly administered in animal experiments without filtration. The IV drug preparation vials were disinfected in an infrared sterilization cabinet one day in advance.
Intravenous injection: Administration was performed via the tail vein. After the needle was inserted, the syringe was slowly […].
Gavage: Gavage needle and syringe of an appropriate type were selected. The gavage needle was inserted from the root of the tongue into the esophagus until it reached near the cardia of the stomach, then the drug formulation was injected, and the gavage needle was withdrawn. When disposable plastic gavage needles were used, one needle was used for each group.
At each time point, 60 µL of whole blood was collected from the submandibular vein or tail vein (except for the IV group). The blood sample was added to a pre-cooled anticoagulant blood collection tube containing anticoagulant EDTA-K2 (1 µL, 15% EDTA-K2 solution), placed on wet ice, and centrifuged (3000 g, 4 °C, 10 min) within 1 h. The plasma was immediately collected after centrifugation, transferred to an EP tube, and stored at -90 °C to -60 °C.
Plasma concentration detection: A developed LC-MS/MS method was used to detect the compounds in plasma.
The plasma concentration-time data were analyzed using a non-compartmental model in the Phoenix® WinNonlin® (Version 8.2, Pharsight, Mountain View, CA).

[2] = Saturated solubility in FaSSIF solution; assay type: physicochemical; details: room temperature, stirred overnight
Method: Efficacy Experimental Example 9: Test of Saturated Solubility of Samples in FaSSIF Solution
About 0.21 g of sodium hydroxide, about 2.24 g of sodium dihydrogen phosphate dihydrate, and 3.09 g of sodium chloride were weighed out and dissolved in 500 mL of water, and after dissolution, the pH was adjusted to 6.5 with 1 N sodium hydroxide or 1 N hydrochloric acid.
112 mg of FaSSIF solid was weighed out and placed in a 50 mL volumetric flask, and the buffer described above was added for dissolution. The resulting solution was diluted to volume, mixed well, and left to stand at room temperature for 2 h or more.
Test sample: About 1 mg of the test sample was taken, and 1 mL of FaSSIF solution was added. The mixture was stirred at room temperature overnight and centrifuged, and the supernatant was collected and injected for analysis.
Reference sample solution: About 1.5 mg of the test sample was precisely weighed out and placed in a 50 mL volumetric flask, and DMF was added for dissolution. The resulting solution was diluted to volume and mixed well.
The peak of the main component of the reference sample and the peak of the test sample with the same retention time were integrated, and the concentration thereof in the FaSSIF solution was calculated according to the external standard method.

in vivo = details: mouse, plasma, po, 200 mg/kg
Method: After adding 5% DMSO, the mixture was vortexed. 15% HS15 was then added, and the mixture was vortexed again. Finally, a 10% aqueous cyclodextrin solution was added, and the resulting mixture was vortexed to prepare the final concentration solution or suspension.

[3] = test system: YAP-TEAD transcription complex; experiment: YAP-TEAD reporter gene assay (dual luciferase, stably transfected 293T cells); assay type: cell-based; details: Homo sapiens, HEK-293T
Method: YAP-TEAD reporter gene The YAP-TEAD reporter gene assay was performed as follows. Firstly, the 8xGTIIC promoter sequence ([…] GTACTGTTGGTAAA) was constructed into a pGL4.20(luc2-Puro) plasmid, and the TK promoter ([…]) unrelated to the hippo pathway was constructed into a pGL4.78(hRlucCP/Hygro) plasmid, thereby constructing stably transfected 293T cells that can stably and continuously express the transcriptional activity of the YAP-TEAD transcription complex. After selection and identification of individual clones, the clones were grown and maintained in a DMEM medium containing 10% fetal bovine serum, penicillin-streptomycin solution, 1 µg/mL puromycin, and 150 µg/mL hygromycin. To perform reporter gene assays with the compounds to be tested, the well-growing cells described above were plated in a 384-well plate at a cell density of 3000 cells per well, with 90 µL per well. The periphery was sealed with an appropriate amount of PBS to prevent evaporation of water from the peripheral wells. Administration was performed on the next day after the cell plating. The test compounds were added at different concentration gradients, and three replicate wells were set for each concentration point. The compound concentration started at 5 µM and was diluted seven times with a 5-fold gradient. A corresponding negative control group treated with DMSO was also set up. After 24 h of drug treatment, the detection reagents were prepared first. The Dual-Lumi™ Firefly luciferase detection reagent and Dual-Lumi™ Renilla luciferase detection buffer were dissolved and brought to room temperature. […]. According to the amount of 100 µL of Dual-Lumi™ Renilla luciferase detection working solution required for the detection of each sample, an appropriate amount of Dual-Lumi™ Renilla luciferase detection working solution was prepared. […]. The cell culture plate was taken out and allowed to equilibrate at room temperature for 10 min (usually no more than 30 min). Then, 100 µL of Dual-Lumi™ Firefly luciferase detection reagent was added to each well of a 96-well plate (25 µL per well for the 384-well plate), and the mixture was mixed well. The mixture was then incubated at room temperature (about 25 °C) for 10 min to stabilize the luminescent signal, and then chemiluminescence was detected using a multimode microplate reader with a chemiluminescence detection function. Subsequently, the detection of Renilla luciferase began. Firstly, 100 µL of Dual-Lumi™ Renilla luciferase detection working solution was added to each well of a […] (25 µL per well for the 384-well plate), and the mixture was mixed well. The mixture was then incubated at room temperature (about 25 °C) for 10 min to stabilize the luminescent signal. Finally, chemiluminescence was detected using a multimode microplate reader with a chemiluminescence detection function. The obtained data were analyzed using GraphPad Prism 7.0 software. A sigmoidal dose-survival rate curve was plotted using a non-linear regression model, and the IC50 values were calculated.

[4] = test system: NCI-H2452 (NF2 wide-type); experiment: Inhibition of cell proliferation (CellTiter-Lumi); assay type: cell-based; details: Homo sapiens, 72 h + another 72 h treatment
Method: (§1) NCI-H2052 (NF2 mutant), NCI-H226 (NF2 mutant), NCI-H2452 (NF2 wide-type), NCI-H28 (NF2 wide-type), and MSTO-211H (NF2 wide-type) cells were cultured in RPMI 1640 complete media.
(§2) The normally growing cells described above were digested with a trypsin cell-digesting solution, centrifuged, counted, and then plated in a 96-well plate at a density of 1000 cells per well. Administration was performed 24 h after the cell plating. Inhibitors at different concentration gradients were added at 10 µL per well, and three replicate wells were set for each concentration point. The starting concentration was 20 µM and diluted 8 times with a 4-fold gradient. A corresponding negative control group treated with 0.1% DMSO was also set up. After 72 h of drug treatment, the cell culture plate to be tested was taken out of the incubator. The culture medium in the 96-well plate was pipetted, and 190 µL of fresh RPMI 1640 complete medium was added. Another administration was performed, and the cells were cultured for another 72 h. The 96-well plate was taken out and allowed to equilibrate at room temperature for 10 min. […] After shaking for two minutes, the mixture was reacted at room temperature for 10 min. Then, 150 µL of liquid was pipetted from the transparent 96-well plate and transferred to a white 96-well plate for chemiluminescence reading. The background value was subtracted from the value for each well to calculate the cell survival rate. Survival rate (%) = […]. Sample is the chemiluminescence of the drug-treated group, and Vehicle is the […] of the DMSO control group. A sigmoidal dose-survival rate curve was plotted using a non-linear regression model in the GraphPad Prism 7.0 software, and the IC50 values or GI50 values were calculated.

NCI-H28 (NF2 wide-type) = experiment: Inhibition of cell proliferation (CellTiter-Lumi); assay type: cell-based; details: Homo sapiens, 72 h + another 72 h treatment
Method: as §1, §2

[5] = 293T reporter cells, 24 h of drug treatment, read-out: IC50

## CC(C)NC(=O)c1ccc2c(Oc3ccc(C(F)(F)F)cc3)cccc2c1 [Comparative compound B1, reference compound]
[1]; Balb/c
  bioavailability: 81%
[1]; Balb/c, iv, 2 mg/kg
  AUC(0-t): 1.24 µM·h
  clearance: 70.8 mL/min/kg
  half-life: 1.4 h
[1]; Balb/c, po, 10 mg/kg
  AUC(0-t): 4.87 µM·h
  Cmax: 0.653 µM
  half-life: 5.6 h

## CNS(=O)(=O)c1ccc2c(Oc3ccc(C(F)(F)F)cc3)cccc2c1 [Comparative compound B2, reference compound]
[1]; Balb/c
  bioavailability: 87.5%
[1]; Balb/c, iv, 2 mg/kg
  AUC(0-t): 8.75 µM·h
  clearance: 6.03 mL/min/kg
  half-life: 19.6 h
[1]; Balb/c, po, 10 mg/kg
  AUC(0-t): 52.8 µM·h
  Cmax: 4.21 µM
  half-life: 9.3 h
[2]
  FaSSIF(pH = 6.5): 16.4 ug/mL
In vivo
  AUC(0-t): 902 µM·h

## CNS(=O)(=O)c1ccc(Nc2ccc(C(F)(F)F)cc2)c(-c2cn(C)cn2)c1 [Comparative compound B3, reference compound]
[2]
  FaSSIF(pH = 6.5): 14.0 ug/mL
In vivo
  AUC(0-t): 1040 µM·h

## CNS(=O)(=O)c1cnc(Oc2ccc(C(F)(F)F)cc2)c(-c2cn3c(n2)CCC3)c1 [Comparative compound B4, reference compound]
[2]
  FaSSIF(pH = 6.5): 36.2 ug/mL

## CP(C)(=O)c1cnc(Oc2ccc(C(F)(F)F)cc2)c(-c2cn3c(n2)CCC3)c1 [Example 9]
[3]; 24 h
  pIC50: 6.80
[1]; mice, IV 2 mg/kg
  MRT: 1.7 h
[1]; mice, IV 2 mg/kg, read-out: AUClast
  AUC(0-t): 5.74 µM·h
[1]; mice, IV 2 mg/kg, read-out: Cl (converted)
  clearance: 13.3 mL/min/kg
[1]; mice, IV 2 mg/kg, read-out: T1/2 (converted)
  half-life: 1.4 h
[1]; mice, PO 10 mg/kg
  MRT: 3.2 h
[1]; mice, PO 10 mg/kg vs IV 2 mg/kg, read-out: F%
  bioavailability: 111%
[1]; mice, PO 10 mg/kg, read-out: AUClast
  AUC(0-t): 30.5 µM·h
[1]; mice, PO 10 mg/kg, read-out: Cmax
  Cmax: 9.37 µM
[1]; mice, PO 10 mg/kg, read-out: T1/2 (converted)
  half-life: 1.9 h

## Cn1ccc(-c2cc(P(C)(C)=O)cnc2Nc2ccc(C(F)(F)F)cc2)n1 [Example 17]
[3]; [5]
  pIC50: 7.93
[4]
  pIC50: < 5.90
NCI-H28 (NF2 wide-type)
  pIC50: 6.02

## CP(C)(=O)c1ccc(Nc2ccc(C(F)(F)F)cc2)c(-c2cn3c(n2)CCC3)c1 [Example 21]
[3]; 24 h
  pIC50: 8.13

## Cn1cnc(-c2cc(P3(=O)CCOCC3)ccc2Nc2ccc(C(F)(F)F)cc2)c1 [Example 23]
[3]; 24 h
  pIC50: 7.56

## CCc1ccc(Oc2cccc3cc(P(C)(C)=O)ccc23)cc1 [Example 25]
[4]
  pIC50: < 4.70
NCI-H28 (NF2 wide-type)
  pIC50: < 4.70

## CP(C)(=O)c1ccc2c(Oc3ccc(C4CC4)cc3)cccc2c1 [Example 26]
[4]
  pIC50: < 5.30
NCI-H28 (NF2 wide-type)
  pIC50: < 5.30

## CP(C)(=O)c1ccc2c(Oc3ccc(OC(F)(F)F)cc3)cccc2c1 [Example 27]
[4]
  pIC50: < 4.70
NCI-H28 (NF2 wide-type)
  pIC50: < 5.30

## CP(C)(=O)c1ccc2c(Oc3ccc(Cl)cc3)cccc2c1 [Example 28]
[3]; [5]
  pIC50: 6.55
[4]
  pIC50: < 4.30
NCI-H28 (NF2 wide-type)
  pIC50: < 4.70

## Cn1cnc(-c2cc(P(C)(C)=O)ccc2Nc2ccc3c(c2)OC(F)(F)O3)c1 [Example 30]
[3]; 24 h
  pIC50: 7.63

## Cn1cnc(-c2cc(P(C)(C)=O)ccc2Nc2ccc(S(F)(F)(F)(F)F)cc2)c1 [Example 31]
[3]; [5]
  pIC50: 7.21

## Cn1cnc(-c2cc(P(C)(C)=O)ccc2Nc2ccc(Cl)cc2)c1 [Example 32]
[3]; 24 h
  pIC50: 7.11

## CP(C)(=O)c1cnc(Nc2ccc(C(F)(F)F)cc2)c(-c2ccccn2)c1 [Example 33]
[3]; 24 h
  pIC50: 7.70

## Cn1cnc(-c2cc(P(C)(C)=O)cnc2Nc2ccc3c(c2)OC(F)(F)O3)c1 [Example 34]
[3]; [5]
  pIC50: 6.72
[4]
  pIC50: < 5.30
NCI-H28 (NF2 wide-type)
  pIC50: < 5.30

## Cn1cnc(-c2cc(P(C)(C)=O)cnc2Nc2ccc(S(F)(F)(F)(F)F)cc2)c1 [Example 36]
[3]; [5]
  pIC50: 7.41
[4]
  pIC50: < 4.70
NCI-H28 (NF2 wide-type)
  pIC50: < 4.70

## CP(C)(=O)c1cnc(Nc2ccc(S(F)(F)(F)(F)F)cc2)c(-c2cn3c(n2)CCC3)c1 [Example 37]
[3]; 24 h
  pIC50: 8.23

## CP(C)(=O)c1cnc(Nc2ccc(Cl)cc2)c(-c2cn3c(n2)CCC3)c1 [Example 38]
[3]; 24 h
  pIC50: 7.54

## CP(C)(=O)c1cnc(Nc2ccc3c(c2)OC(F)(F)O3)c(-c2cn3c(n2)CCC3)c1 [Example 39]
[3]; [5]
  pIC50: 7.49
[4]
  pIC50: < 5.90
NCI-H28 (NF2 wide-type)
  pIC50: < 5.90
